Patent US11918550B2, “Sensitization of cancer cells to differentiation therapy with mitochondrial uncoupler niclosamide ethanolamine” (The Board of Trustees of the Leland Stanford Junior …, priority 2020, dated 2024)

Columns and labels:
[1] = Plasma and tissue NEN levels under dietary NEN supplementation (LC/MS); format: in vivo; conditions: mice, diet that contains 2000 ppm NEN
Method: (§1) Metabolic analysis. For the metabolomics and isotope tracing analysis in vitro, cells were washed with cold PBS, lysed in 80% Ultra LC-MS acetonitrile on ice for 15 minutes, centrifuged at 20,000 g for 10 minutes at 4° C., and supernatant was subjected to mass spectrometry analysis. For the metabolomics analysis in vivo, 10-20 mg tissue were cut off on ice, rinsed if necessary to remove blood, and place in a 2 ml round-bottom cryovial. The tissues were homogenized by 3 times 10 s on/off bursts homogenization in 1 ml 80% methanol on dry ice. Transfer the homogenate to an Eppendorf tube and keep on liquid nitrogen while processing the remaining samples. Incubated all the samples in −80° C. for 30 minutes. After incubation, vortexed the samples for 5 seconds. Then centrifuged the samples at 20,000 g for 10 minutes at 4° C., and supernatant was subjected to mass spectrometry analysis. Resuspend the remaining cellular pellet in 100 ul protein lysis buffer and determine the protein concentration. Then calculate the total protein content per sample.
(§2) Liquid chromatography was performed using an Agilent 1290 Infinity LC system (Agilent, Santa Clara, US) coupled to a Q-TOF 6545 mass spectrometer (Agilent, Santa Clara, US). […]
(§3) Mouse orthotopic neuroblastoma model. […] Tumor formation was monitored by non-invasive ultrasound measurements, and the animals euthanized when the tumor volume exceeded 1,000 mm^3.

[2] = system: HIF target genes such as pdk1, pdk3, pgk1 and Idha; experiment: RT-PCR of HIF target genes; format: cell-based; conditions: SK-N-BE(2), 2 or 4 μM NEN, normoxia or hypoxia
Method: RNA isolation, reverse transcription, and real-time PCR. The procedure was performed as described before. Briefly, total RNA was isolated from 60 mm tissue culture plates according to the TRIzol Reagent (Invitrogen, 15596026) protocol. 3 μg of total RNA was used in the reverse transcription reaction using the iScript cDNA synthesis kit (Bio-Rad). Quantitative PCR amplification was performed on the Prism 7900 Sequence Detection System (Applied Biosystems) using Taqman Gene Expression Assays (Applied Biosystems). Gene expression level were normalized to 18S rRNA.

SK-N-BE(2) cells = experiment: 1-13C-glutamine tracing of reductive carboxylation under normoxia or hypoxia; format: cell-based; conditions: 1 μM NEN
Method: as §1, §2

[3] = system: orthotopic neuroblastoma xenograft (SK-N-BE(2) cells); experiment: Metabolite levels in orthotopic xenograft tumors by LC/MS; format: in vivo, mice; conditions: diet 2000 ppm NEN vs control
Method: as §1
Liquid chromatography was performed using an Agilent 1290 Infinity LC system (Agilent, Santa Clara, US) coupled to a Q-TOF 6545 mass spectrometer (Agilent, Santa Clara, US). A hydrophilic interaction chromatography method (HILIC) with a BEH amide column (100×2.1 mm i.d., 1.7 μm; Waters) was used for compound separation at 35° C. with a flow rate of 0.3 ml/minutes. The mobile phase A consisted of 25 mM ammonium acetate and 25 mM ammonium hydroxide in water and mobile phase B was acetonitrile. The gradient elution was 0-1 minute, 85% B; 1-12 minutes, 85% B→65% B; 12-12.2 minutes, 65% B→40% B; 12.2-15 minutes, 40% B. After the gradient, the column was re-equilibrated at 85% B for 5 minutes. The overall runtime was 20 minutes, and the injection volume was 5 μL. […]
as §3

SMILES: O=C(Nc1ccc([N+](=O)[O-])cc1Cl)c1cc(Cl)ccc1O [NEN, 5-chloro-N-(2-chloro-4-nitrophenyl)-2-hydroxybenzamide compound with 2-aminoethanol (1:1)]
- NEN accumulation in plasma [1]: 1 to 3 µM
- expression of HIF target genes such as pdk1, pdk3, pgk1 and Idha [2]: reduced
- hypoxia-induced reductive carboxylation flux (SK-N-BE(2) cells; hypoxia (0.5% oxygen)): fully repressed
- basal reductive carboxylation flux (SK-N-BE(2) cells; normoxia): reduced
- 2-HG level in the tumor [3]: reduced
- NAD+/NADH in the tumor [3]: increased
- lactate level in the tumor [3]: slightly reduced
